In ChEMBL document CHEMBL5257090, “Modulation of in Vitro SARS-CoV-2 Infection by Stephania tetrandra and Its Alkaloid Constituents” (J Nat Prod, 2023):
The source made the active and inactive calls. The calls are words filed in the database; no cut-off is given here.

Key:
SARS-CoV-2 [1] = assay: Antiviral activity against SARS-CoV-2 infected in HEK293T cells expressing ACE2/TMPRSS2 assessed as reduction in virus-induced cytopathic effect at 5 to 10 uM measured after 48 hrs by cellular ATP assay; assay type: functional, organism-based; conditions: Severe acute respiratory syndrome coronavirus 2, dose 5-10 µM
SARS-CoV-2 [2] = assay: Antiviral activity against SARS-CoV-2 infected in HEK293T cells expressing ACE2/TMPRSS2 assessed as reduction in virus-induced cytopathic effect measured after 48 hrs by cellular ATP assay; assay type: functional, organism-based; conditions: Severe acute respiratory syndrome coronavirus 2, HEK-293T
SARS-CoV-2 [3] = assay: Antiviral activity against SARS-CoV-2 delta infected in African green monkey Vero E6 cells expressing ACE-2/TMPRSS2 assessed as reduction in virus-induced cytopathic effect at 0.31 to 2.5 uM measured after 48 hrs by cellular ATP assay; assay type: functional, organism-based; conditions: Severe acute respiratory syndrome coronavirus 2, dose 0.31-2.5 µM
[4] = Induction of phospholipidosis in HEK293T cells expressing ACE-2/TMPRSS2 at 1 uM measured after 24 hrs by DAPI staining based fluorescence microscopic analysis; assay type: toxicity, cell-based; conditions: human, hek-293t
SARS-CoV-2 [5] = assay: Antiviral activity against wild-type SARS-CoV-2 USA-WA1/2020 NR-52281 infected in African green monkey Vero E6 cells expressing ACE-2/TMPRSS2 assessed as reduction in virus-induced cytopathic effect at 0.31 to 2.5 uM measured after 48 hrs by cellular ATP assay; assay type: functional, organism-based; conditions: Severe acute respiratory syndrome coronavirus 2, dose 0.31-2.5 µM
[6] = Induction of phospholipidosis in African green monkey Vero E6 cells expressing ACE-2/TMPRSS2 at 100 to 300 nM measured after 24 hrs by DAPI staining based fluorescence microscopic analysis; assay type: toxicity, cell-based; conditions: chlorocebus sabaeus, vero c1008, 24 h, 0.3 µM, dose 100-300 nM
HEK-293T [7] = assay: Downregulation of ORF1ab gene expression in HEK293T cells expressing ACE-2/TMPRSS2 infected with SARS-CoV-2 assessed as fold change preincubated with compound for 2 hrs followed by viral infection and measured after 24 hrs relative to MPV; assay type: functional, cell-based; conditions: Homo sapiens, time 26.0 hrs
[8] = Permeability of the compound in pH 7.4 measured after 5 hrs by LC-MS based PAMPA assay; assay type: ADME; conditions: pH 7.4, 5 h
[9] = Cytotoxicity against HEK293T cells assessed as reduction in cell viability by CellTiter-Glo assay; assay type: toxicity, cell-based, HEK-293T; conditions: human
[10] = Induction of phospholipidosis in HEK293T cells expressing ACE-2/TMPRSS2 at 100 to 300 nM measured after 24 hrs by DAPI staining based fluorescence microscopic analysis; assay type: toxicity, cell-based; conditions: human, hek-293t, 0.3 µM, dose 100-300 nM
HEK-293T [11] = assay: Up-regulation of leukocyte proliferation genes in HEK293T cells expressing ACE-2/TMPRSS2 infected with SARS-CoV-2 preincubated with compound for 2 hrs followed by viral infection and measured after 24 hrs by gene ontology analysis; assay type: functional, cell-based; conditions: Homo sapiens, time 26.0 hrs
HEK-293T [12] = assay: Downregulation of viral nucleocapsid N gene expression in HEK293T cells expressing ACE-2/TMPRSS2 infected with SARS-CoV-2 assessed as fold change preincubated with compound for 2 hrs followed by viral infection and measured after 24 hrs relative to MPV; assay type: functional, cell-based; conditions: Homo sapiens, time 26.0 hrs
SARS-CoV-2 [13] = assay: Antiviral activity against SARS-CoV-2 infected in HEK293T cells expressing ACE2/TMPRSS2 assessed as reduction in virus-induced cytopathic effect at 2.5 uM measured after 48 hrs by cellular ATP assay; assay type: functional, Severe acute respiratory syndrome coronavirus 2; parameters: scale not given: the % may be the effect or the level left
HEK-293T [14] = assay: Cytotoxicity against HEK293T cells at 2.5 to 10 uM assessed as reduction in cell viability by CellTiter-Glo assay; assay type: toxicity, cell-based; conditions: human, dose 2.5-10 µM
SARS-CoV-2 [15] = assay: Antiviral activity against SARS-CoV-2 infected in HEK293T cells expressing ACE2/TMPRSS2 assessed as reduction in virus-induced cytopathic effect at 10 uM measured after 48 hrs by cellular ATP assay; assay type: functional, Severe acute respiratory syndrome coronavirus 2; parameters: scale not given: the % may be the effect or the level left
HEK-293T [16] = assay: Cytotoxicity against HEK293T cells at 0.1 uM assessed as reduction in cell viability by CellTiter-Glo assay; assay type: toxicity, cell-based; conditions: human
HEK-293T [17] = assay: Cytotoxicity against HEK293T cells at 10 uM assessed as reduction in cell viability by CellTiter-Glo assay; assay type: toxicity, cell-based; conditions: human

Row | Structure (SMILES) | IC50 (SARS-CoV-2 [2]) [µM] | Activity [4] | Activity (SARS-CoV-2 [5]) | Activity [6] | Activity (HEK-293T [7]) | CC50 [9] [µM] | Activity [10] | other results
1 | O=C(O)[C@H]1O[C@@H](Oc2cc3oc(-c4ccccc4)cc(=O)c3c(O)c2O)[C@H](O)[C@@H](O)[C@@H]1O | – | – | – | – | – | – | – | Activity (SARS-CoV-2 [1]): inactive
2 | COc1ccc2cc1Oc1ccc(cc1)C[C@H]1c3c(cc4c(c3Oc3cc5c(cc3OC)CCN(C)[C@@H]5C2)OCO4)CCN1C [CEPHARANTHINE] | 0.143 | Toxic | inactive | Non-Toxic | Active | 2.1 | Non-Toxic | Activity (SARS-CoV-2 [3]): Active; permeability [8]: Permeable
3 | CN1[C@@H](CC(=O)c2ccccc2)CCC[C@H]1C[C@H](O)c1ccccc1 | – | – | – | – | – | – | – | Activity (SARS-CoV-2 [1]): inactive
4 | O=c1cc(-c2ccccc2)oc2cc(O)c(O)c(O)c12 [BAICALEIN] | 5.1 | – | – | – | – | – | – | –
5 | COc1ccc2cc1Oc1ccc(cc1)C[C@H]1c3cc(c(OC)cc3CCN1C)Oc1c(O)c(OC)cc3c1[C@H](C2)N(C)CC3 [FANGCHINOLINE] | 0.193 | Toxic | inactive | Non-Toxic | Active | > 1 | Non-Toxic | Activity (HEK-293T [11]): Active
6 | COc1ccc2cc1Oc1ccc(cc1)C[C@H]1c3cc(c(OC)cc3CCN1C)Oc1c(OC)c(OC)cc3c1[C@H](C2)N(C)CC3 [FANCHININ] | 0.284 | Toxic | inactive | Non-Toxic | Active | > 1 | Non-Toxic | Activity (HEK-293T [12]): Active; Activity (HEK-293T [11]): Active; permeability [8]: Permeable
7 | CN(C)C(=O)COC(=O)Cc1ccc(OC(=O)c2ccc(NC(=N)N)cc2)cc1 [CAMOSTAT] | – | – | – | – | – | – | – | Activity (SARS-CoV-2 [13]): 23%; Activity (HEK-293T [14]): Non-Toxic; Activity (SARS-CoV-2 [15]): 54.5%
8 | CCC(CC)COC(=O)[C@H](C)N[P@](=O)(OC[C@H]1O[C@@](C#N)(c2ccc3c(N)ncnn23)[C@H](O)[C@@H]1O)Oc1ccccc1 | – | – | – | – | – | – | – | Activity (HEK-293T [16]): Non-Toxic; Activity (HEK-293T [17]): Toxic
